Key:
[1] = In vivo clearance in nonhuman primate at 0.2 mg/kg, iv by HPLC analysis; assay type: ADME, organism-based; settings: primates
SJSA-1 [2] = experiment: Antitumor activity in human SJSA-1 cells […] CD-1 mouse xenograft model assessed as inhibition of tumor growth at 50 mg/kg, po single dose for 7 days relative to control; assay type: functional; settings: time 7 day
[3] = Toxicity in CD-1 mouse xenografted human SJSA-1 cells assessed as change in body weight at 50 mg/kg, po single dose for 7 days relative to control; assay type: organism-based; settings: in vivo, 168 h, time 7 day
[4] = Plasma clearance in BALB/c mouse at 5 mg/kg, po by HPLC analysis; assay type: ADME, organism-based
[5] = Oral bioavailability in BALB/c mouse at 5 mg/kg by HPLC analysis; assay type: ADME, organism-based; settings: in vivo
[6] = Metabolic stability in CD1 mouse liver microsomes assessed as half life at 1 uM; assay type: ADME, Microsome
[7] = Toxicity in CD-1 mouse xenografted human SJSA-1 cells assessed as adverse effect at 50 mg/kg, po single dose for 7 days relative to control; assay type: organism-based; settings: in vivo, 168 h, time 7 day
[8] = Inhibition of MDM2/IP3 (unknown origin) protein-protein interaction expressed using TNT T7 coupled reticulocyte lysate system incubated for 90 mins by ELISA
[9] = Lipophilicity, logD of compound at pH 7.4 by Chromatography; assay type: physicochemical; settings: buffer
CYP3A4 [10] = molecular target: T1, CYP3A4 (Homo sapiens, UniProt P08684); experiment: Inhibition of CYP3A4 (unknown origin) using midazolam as substrate in presence of NADPH at 8 uM; assay type: ADME; settings: probe midazolam
T1 sequence (P08684 whole entry): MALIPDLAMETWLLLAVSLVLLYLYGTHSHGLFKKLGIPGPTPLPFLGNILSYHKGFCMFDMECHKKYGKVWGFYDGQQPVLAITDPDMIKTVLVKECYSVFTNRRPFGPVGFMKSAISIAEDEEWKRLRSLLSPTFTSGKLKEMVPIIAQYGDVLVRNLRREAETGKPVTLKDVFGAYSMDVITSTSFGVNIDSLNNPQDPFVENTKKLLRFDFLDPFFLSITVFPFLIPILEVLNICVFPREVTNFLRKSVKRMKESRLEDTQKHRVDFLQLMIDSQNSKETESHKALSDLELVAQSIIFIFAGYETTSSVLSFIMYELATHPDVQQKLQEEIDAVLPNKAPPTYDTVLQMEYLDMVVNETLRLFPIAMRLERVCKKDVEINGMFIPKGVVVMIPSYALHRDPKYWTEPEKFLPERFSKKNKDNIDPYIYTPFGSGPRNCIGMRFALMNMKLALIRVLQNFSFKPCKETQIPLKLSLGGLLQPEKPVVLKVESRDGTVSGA

SJSA-1 [11] = experiment: Antitumor activity in human SJSA-1 cells […] CD-1 mouse xenograft model assessed as increase in p53 expression in tumor at 50 mg/kg, po single dose measured after 3 hrs by MSD analysis relative to control; assay type: functional
[12] = Metabolic stability in human liver microsomes assessed as half life at 1 uM; assay type: ADME, Microsome
[13] = Oral bioavailability in nonhuman primate at 5 mg/kg by HPLC analysis; assay type: ADME, organism-based; settings: primates, in vivo
[14] = Antiproliferative activity against human SN40R2 cells derivative of SJSA-1 cells expressing mutant TP53 at 30 uM incubated for 72 hrs by Sulforhodamine B assay; assay type: functional
SJSA-1 [15] = experiment: Antitumor activity in human SJSA-1 cells […] CD-1 mouse xenograft model assessed as increase in p53 expression in tumor at 50 mg/kg, po single dose measured after 6 hrs by MSD analysis relative to control; assay type: functional
CYP3A4 [16] = molecular target: T1, CYP3A4; experiment: Inhibition of human CYP3A4 expressed in human supersomes assessed as half life in presence of NADPH at 1 uM using midazolam as substrate measured after 40 mins; assay type: ADME; settings: supersomes expressing human CYP3A4, probe midazolam
SJSA-1 [17] = experiment: Antiproliferative activity against human SJSA-1 cells expressing wild type TP53 incubated for 72 hrs by Sulforhodamine B assay; assay type: functional
[18] = Plasma protein binding in human incubated for 48 hrs; assay type: ADME, cell-free; settings: read-out: PPB (converted)
[19] = Plasma protein binding in BALB/c mouse incubated for 48 hrs; assay type: ADME, cell-free; settings: read-out: PPB (converted)

With `[2H]C([2H])(O)C1(C([2H])([2H])O[C@]2(c3ccc(Cl)cc3)c3c(F)cc(C(C)(C)O)cc3C(=O)N2Cc2ccc(C#N)cn2)CC1` the clearance [1] was 11 mL/min/kg, the T/C (SJSA-1 [2]) was 21% and the Activity [3] was “Non-Toxic”. The CL/F [4] was 11 mL/min/kg, the bioavailability [5] was 46% and the half-life at 1 µM [6] was 27 min. For the same compound, the Activity [7] was “Non-Toxic”, the IC50 [8] was 3.8 nM and the chromatographic logD [9] was 3.8. The inhibition at 8 µM (CYP3A4 [10]) was 46%, the “fold change (FC)” value (SJSA-1 [11]) was 3.7 and the half-life at 1 µM [12] was 52 min. The bioavailability [13] was 31%, the Activity [14] was 20% and the “fold change (FC)” value (SJSA-1 [15]) was 10.3. It also gave a half-life at 1 µM (CYP3A4 [16]) of 14 min, a GI50 (SJSA-1 [17]) of 200 nM and a fraction unbound at 48 h [18] of 0.086. The fraction unbound at 48 h [19] was 0.094.
